Reference: paper PMC3310290 (Bioconjugate Chemistry, 2012)
Positions of bridges follow the written chain, without caps; N, C: chain ends. Residues, ends and D or L forms follow the SMILES beside them. *: point of attachment. 5FAM = O=C1OC2(c3ccc(O)cc3Oc3cc(O)ccc32)c2ccc(C(=O)*)cc21; DTPA = O=C(O)CN(CCN(CC(=O)O)CC(=O)O)CCN(CC(=O)O)CC(=O)*; Ahx = NCCCCCC(=O)O

Experiments:
fibrin [1] = biological target: T1, fibrin (Homo sapiens, UniProt P02671+P02675+P02679); experiment: Solvent water 1H relaxation rate; format: physicochemical; conditions: 30 μM fibrin, 0.47T, 37°C
T1 sequence (P02671 36-866 limits assumed): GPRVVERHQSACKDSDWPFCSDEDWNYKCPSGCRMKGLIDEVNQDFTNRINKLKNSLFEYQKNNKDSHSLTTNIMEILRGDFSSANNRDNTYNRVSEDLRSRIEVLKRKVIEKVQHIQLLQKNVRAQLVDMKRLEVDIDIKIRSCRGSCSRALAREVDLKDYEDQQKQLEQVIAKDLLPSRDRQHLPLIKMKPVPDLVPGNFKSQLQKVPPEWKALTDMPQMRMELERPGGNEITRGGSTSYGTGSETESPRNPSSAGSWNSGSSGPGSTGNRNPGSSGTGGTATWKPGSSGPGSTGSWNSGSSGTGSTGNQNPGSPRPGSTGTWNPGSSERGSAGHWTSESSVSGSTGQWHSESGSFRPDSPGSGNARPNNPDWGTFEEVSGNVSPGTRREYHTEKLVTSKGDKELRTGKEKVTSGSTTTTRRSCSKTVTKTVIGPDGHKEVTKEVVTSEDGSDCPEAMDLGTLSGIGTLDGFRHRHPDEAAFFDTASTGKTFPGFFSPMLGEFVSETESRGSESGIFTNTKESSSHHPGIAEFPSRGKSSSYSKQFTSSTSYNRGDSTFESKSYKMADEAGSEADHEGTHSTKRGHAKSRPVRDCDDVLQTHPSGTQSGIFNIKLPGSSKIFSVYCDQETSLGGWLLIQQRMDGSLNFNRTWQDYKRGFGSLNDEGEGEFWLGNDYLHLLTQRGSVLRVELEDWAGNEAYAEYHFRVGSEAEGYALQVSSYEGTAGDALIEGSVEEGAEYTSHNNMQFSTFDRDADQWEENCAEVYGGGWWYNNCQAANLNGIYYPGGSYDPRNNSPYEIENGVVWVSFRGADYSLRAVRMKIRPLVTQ
T1 sequence (P02675 45-491 limits assumed): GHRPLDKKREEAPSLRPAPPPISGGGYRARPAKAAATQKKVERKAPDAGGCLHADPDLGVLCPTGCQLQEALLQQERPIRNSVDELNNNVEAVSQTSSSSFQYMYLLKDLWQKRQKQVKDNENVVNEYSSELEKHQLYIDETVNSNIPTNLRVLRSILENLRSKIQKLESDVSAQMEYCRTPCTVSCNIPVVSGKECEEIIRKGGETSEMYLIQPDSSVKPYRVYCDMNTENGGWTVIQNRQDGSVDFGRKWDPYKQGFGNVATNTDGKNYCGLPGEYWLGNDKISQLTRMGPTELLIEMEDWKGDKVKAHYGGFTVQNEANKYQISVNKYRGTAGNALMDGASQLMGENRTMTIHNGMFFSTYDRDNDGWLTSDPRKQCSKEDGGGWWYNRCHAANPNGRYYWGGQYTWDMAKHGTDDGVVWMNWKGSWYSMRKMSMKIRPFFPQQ
T1 sequence (P02679 27-433 limits assumed): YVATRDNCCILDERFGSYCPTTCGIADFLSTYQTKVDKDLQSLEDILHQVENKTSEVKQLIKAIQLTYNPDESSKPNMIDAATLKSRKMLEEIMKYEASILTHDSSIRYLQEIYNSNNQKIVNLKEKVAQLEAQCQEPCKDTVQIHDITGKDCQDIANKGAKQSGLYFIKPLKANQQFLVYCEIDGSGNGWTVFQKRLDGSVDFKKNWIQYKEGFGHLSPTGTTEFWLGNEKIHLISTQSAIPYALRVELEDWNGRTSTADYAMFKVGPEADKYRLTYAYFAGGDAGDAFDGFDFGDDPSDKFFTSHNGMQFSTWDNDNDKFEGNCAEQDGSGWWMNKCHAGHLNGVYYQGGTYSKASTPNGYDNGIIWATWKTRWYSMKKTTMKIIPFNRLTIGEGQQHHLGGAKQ

fibrinogen = biological target: T2, fibrinogen (Homo sapiens, UniProt P02671+P02675+P02679); experiment: Fluorescence polarization, binding to fibrinogen; conditions: fluorescence anisotropy
T2 sequence (P02671 20-629 limits assumed): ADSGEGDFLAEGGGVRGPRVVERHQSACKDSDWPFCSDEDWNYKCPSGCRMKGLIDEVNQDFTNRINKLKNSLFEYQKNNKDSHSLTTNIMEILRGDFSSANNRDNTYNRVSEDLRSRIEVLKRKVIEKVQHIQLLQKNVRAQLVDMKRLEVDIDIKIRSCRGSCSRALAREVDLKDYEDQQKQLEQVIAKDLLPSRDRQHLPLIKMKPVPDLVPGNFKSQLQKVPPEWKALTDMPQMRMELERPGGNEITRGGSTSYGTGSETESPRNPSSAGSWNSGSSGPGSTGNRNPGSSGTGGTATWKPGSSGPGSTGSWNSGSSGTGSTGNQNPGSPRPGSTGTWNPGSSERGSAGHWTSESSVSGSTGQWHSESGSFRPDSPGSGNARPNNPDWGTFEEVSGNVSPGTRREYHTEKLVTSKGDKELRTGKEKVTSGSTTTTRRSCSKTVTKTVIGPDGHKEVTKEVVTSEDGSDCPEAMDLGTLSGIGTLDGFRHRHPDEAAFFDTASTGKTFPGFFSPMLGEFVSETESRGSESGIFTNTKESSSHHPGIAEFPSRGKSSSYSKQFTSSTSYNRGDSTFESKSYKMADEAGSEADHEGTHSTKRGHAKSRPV
T2 sequence (P02675 31-491): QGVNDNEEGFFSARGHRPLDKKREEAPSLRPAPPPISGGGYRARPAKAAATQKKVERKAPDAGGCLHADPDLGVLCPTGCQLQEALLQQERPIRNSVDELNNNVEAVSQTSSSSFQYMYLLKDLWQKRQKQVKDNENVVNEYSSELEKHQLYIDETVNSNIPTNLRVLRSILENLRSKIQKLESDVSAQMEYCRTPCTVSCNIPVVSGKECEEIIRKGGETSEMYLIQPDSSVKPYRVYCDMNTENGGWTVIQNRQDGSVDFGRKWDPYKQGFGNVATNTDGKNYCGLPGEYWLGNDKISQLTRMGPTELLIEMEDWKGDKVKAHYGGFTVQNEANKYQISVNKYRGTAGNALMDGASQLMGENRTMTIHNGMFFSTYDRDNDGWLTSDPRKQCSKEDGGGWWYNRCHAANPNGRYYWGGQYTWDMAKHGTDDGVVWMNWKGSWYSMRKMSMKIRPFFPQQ
T2 sequence (P02679 27-433 limits assumed): T1 sequence (P02679 27-433 limits assumed)

fibrin [2] = biological target: T1, fibrin; conditions: ref [15]; cited from earlier work

With O=C([O-])CN(CCN(CC(=O)[O-])CC(=O)O)CCN(CC(=O)[O-])CC(=O)O.[Gd+3] [GdDTPA, diethylenetriaminepentaaceto gadolinium(III), reference compound] the “enhancement of 1/T1 in fibrin gel compared to buffer” value (fibrin [1]) was “no enhancement of 1/T1”.

For CC[C@H](C)[C@H](NC(=O)[C@H](Cc1c[nH]c2ccccc12)NC(=O)[C@@H]1CSSC[C@H](NC(=O)[C@H](CCC(=O)O)NC(=O)[C@H](Cc2c[nH]c3ccccc23)NC(=O)[C@H](CCC(N)=O)NC(=O)CCCCCNC(=O)c2ccc3c(c2)C(=O)OC32c3ccc(O)cc3Oc3cc(O)ccc32)C(=O)N2CCC[C@H]2C(=O)N[C@@H](Cc2ccc(O)cc2)C(=O)NCC(=O)N[C@@H](CC(C)C)C(=O)N1)C(=O)N[C@@H](CCC(N)=O)C(N)=O [Tn6-2b-Fl, Fluor-Aca-QWECPYGLCWIQ] ({5FAM-Ahx}-QWECPYGLCWIQ-NH2; disulfide 4-9), the “fibrinogen binding weaker than to DD(E)” value (fibrinogen) was 400 fold.

For “DTPA-GYLCGDYTLCPD-NH2 ({DTPA}-GYLCGDYTLCPD-NH2; not fully specified (bridges); cysteine pairing not given here)”, the “fibrin binding (in words)” value (fibrin [2]) is given as “No measurable fibrin binding”.
